Experimental data from ChEMBL document CHEMBL3352650, “Investigation of podophyllotoxin esters as potential anticancer agents: synthesis, biological studies and tubulin inhibition properties” (Eur J Med Chem, 2015).
pIC50: −log10 of the molar value. The source made the active and inactive calls. No cut-off for these calls is given here.

These compounds were tested on HeLa (assay: Cytotoxicity against human HeLa cells after 48 hrs by MTT assay). Conditions: not given.
Assay type: functional, cell-based

Row | Structure (SMILES) | pIC50
1 | COc1ccc(/C=C(/C(=O)O[C@H]2c3cc4c(cc3[C@@H](c3cc(OC)c(OC)c(OC)c3)[C@H]3C(=O)OC[C@@H]32)OCO4)c2ccc(OC)c(OC)c2)cc1OC | 5.69
2 | COc1ccc(/C(=C\c2cc(OC)c(OC)c(OC)c2)C(=O)O[C@H]2c3cc4c(cc3[C@@H](c3cc(OC)c(OC)c(OC)c3)[C@H]3C(=O)OC[C@@H]32)OCO4)cc1 | 4.80
3 | COc1cc([C@@H]2c3cc4c(cc3[C@H](OC(=O)c3cc([N+](=O)[O-])ccc3N)[C@H]3COC(=O)[C@H]23)OCO4)cc(OC)c1OC | 4.86
4 | COc1cc([C@@H]2c3cc4c(cc3[C@H](OC(=O)c3cccc(OC)c3OC)[C@H]3COC(=O)[C@H]23)OCO4)cc(OC)c1OC | 4.88

The compounds below were run against T1, Tubulin (Homo sapiens) (UniProt P68371+Q9H4B7+P0DPH7+P68366+Q13509+Q71U36+P04350+Q3ZCM7+P07437+P68363+Q9BQE3+Q6PEY2+Q13885+Q9BVA1+Q9BUF5) (assay: Inhibition of tubulin polymerization (unknown origin) at 5 uM measured every min for 1 hr by fluorescence-based assay). Conditions: not given.
Assay type: protein-complex assay
Parameters: scale not given: the % may be the effect or the level left

Row | Structure (SMILES) | Activity
5 | COc1ccc(/C=C(/C(=O)O[C@H]2c3cc4c(cc3[C@@H](c3cc(OC)c(OC)c(OC)c3)[C@H]3C(=O)OC[C@@H]32)OCO4)c2ccc(OC)c(OC)c2)cc1OC | 46.8%

Each compound was assayed against T1, Tubulin (Homo sapiens) (assay: Inhibition of tubulin polymerization in human DU145 cells assessed as reduction of Akt phosphorylation at Ser473 at 2 to 5 uM after 48 hrs by Western blotting analysis). Conditions: DU-145.
Assay type: cell-based

Row | Structure (SMILES) | Activity
6 | COc1ccc(/C=C(/C(=O)O[C@H]2c3cc4c(cc3[C@@H](c3cc(OC)c(OC)c(OC)c3)[C@H]3C(=O)OC[C@@H]32)OCO4)c2ccc(OC)c(OC)c2)cc1OC | Dose-dependent effect

The compounds below were run on DU-145 (assay: Cytotoxicity against human DU145 cells after 48 hrs by MTT assay). Conditions: DU-145, 48 h.
Assay type: functional, cell-based

Row | Structure (SMILES) | pIC50
7 | COc1ccc(/C=C(/C(=O)O[C@H]2c3cc4c(cc3[C@@H](c3cc(OC)c(OC)c(OC)c3)[C@H]3C(=O)OC[C@@H]32)OCO4)c2ccc(OC)c(OC)c2)cc1OC | 5.85
8 | COc1ccc(/C(=C\c2cc(OC)c(OC)c(OC)c2)C(=O)O[C@H]2c3cc4c(cc3[C@@H](c3cc(OC)c(OC)c(OC)c3)[C@H]3C(=O)OC[C@@H]32)OCO4)cc1 | 4.42
9 | COc1cc([C@@H]2c3cc4c(cc3[C@H](OC(=O)c3cc([N+](=O)[O-])ccc3N)[C@H]3COC(=O)[C@H]23)OCO4)cc(OC)c1OC | 4.95
10 | COc1cc([C@@H]2c3cc4c(cc3[C@H](OC(=O)c3cccc(OC)c3OC)[C@H]3COC(=O)[C@H]23)OCO4)cc(OC)c1OC | 4.30

Each compound was assayed on MCF7 (assay: Cytotoxicity against human MCF7 cells after 48 hrs by MTT assay). Conditions: MCF7, 48 h.
Assay type: functional, cell-based

Row | Structure (SMILES) | pIC50
11 | COc1ccc(/C=C(/C(=O)O[C@H]2c3cc4c(cc3[C@@H](c3cc(OC)c(OC)c(OC)c3)[C@H]3C(=O)OC[C@@H]32)OCO4)c2ccc(OC)c(OC)c2)cc1OC | 5.76
12 | COc1ccc(/C(=C\c2cc(OC)c(OC)c(OC)c2)C(=O)O[C@H]2c3cc4c(cc3[C@@H](c3cc(OC)c(OC)c(OC)c3)[C@H]3C(=O)OC[C@@H]32)OCO4)cc1 | 4.63
13 | COc1cc([C@@H]2c3cc4c(cc3[C@H](OC(=O)c3cc([N+](=O)[O-])ccc3N)[C@H]3COC(=O)[C@H]23)OCO4)cc(OC)c1OC | 4.71
14 | COc1cc([C@@H]2c3cc4c(cc3[C@H](OC(=O)c3cccc(OC)c3OC)[C@H]3COC(=O)[C@H]23)OCO4)cc(OC)c1OC | 4.68

What follows are compounds tested on A549 (assay: Cytotoxicity against human A549 cells after 48 hrs by MTT assay). Conditions: A549, 48 h.
Assay type: functional, cell-based

Row | Structure (SMILES) | pIC50
15 | COc1ccc(/C=C(/C(=O)O[C@H]2c3cc4c(cc3[C@@H](c3cc(OC)c(OC)c(OC)c3)[C@H]3C(=O)OC[C@@H]32)OCO4)c2ccc(OC)c(OC)c2)cc1OC | 6.15
16 | COc1ccc(/C(=C\c2cc(OC)c(OC)c(OC)c2)C(=O)O[C@H]2c3cc4c(cc3[C@@H](c3cc(OC)c(OC)c(OC)c3)[C@H]3C(=O)OC[C@@H]32)OCO4)cc1 | 4.89
17 | COc1cc([C@@H]2c3cc4c(cc3[C@H](OC(=O)c3cc([N+](=O)[O-])ccc3N)[C@H]3COC(=O)[C@H]23)OCO4)cc(OC)c1OC | 4.65
18 | COc1cc([C@@H]2c3cc4c(cc3[C@H](OC(=O)c3cccc(OC)c3OC)[C@H]3COC(=O)[C@H]23)OCO4)cc(OC)c1OC | 4.61

Each compound was assayed on DU-145 (assay: Cell cycle arrest in human DU145 cells assessed as accumulation at G0/G1 phase at 2 uM after 48 hrs by propidium iodide staining-based flow cytometric analysis (reference value: 78.96%)). Conditions: not given.
Assay type: functional

Row | Structure (SMILES) | Activity
19 | COc1ccc(/C=C(/C(=O)O[C@H]2c3cc4c(cc3[C@@H](c3cc(OC)c(OC)c(OC)c3)[C@H]3C(=O)OC[C@@H]32)OCO4)c2ccc(OC)c(OC)c2)cc1OC | 22.39%

Each compound was assayed on DU-145 (assay: Cell cycle arrest in human DU145 cells assessed as accumulation at G2/M phase at 2 uM after 48 hrs by propidium iodide staining-based flow cytometric analysis (reference value: 15%)). Conditions: not given.
Assay type: functional

Row | Structure (SMILES) | Activity
20 | COc1ccc(/C=C(/C(=O)O[C@H]2c3cc4c(cc3[C@@H](c3cc(OC)c(OC)c(OC)c3)[C@H]3C(=O)OC[C@@H]32)OCO4)c2ccc(OC)c(OC)c2)cc1OC | 2.94%

Each compound was assayed on DU-145 (assay: Cell cycle arrest in human DU145 cells assessed as accumulation at sub-G1 phase at 2 uM after 48 hrs by propidium iodide staining-based flow cytometric analysis (reference value: 0.17%)). Conditions: not given.
Assay type: functional

Row | Structure (SMILES) | Activity
21 | COc1ccc(/C=C(/C(=O)O[C@H]2c3cc4c(cc3[C@@H](c3cc(OC)c(OC)c(OC)c3)[C@H]3C(=O)OC[C@@H]32)OCO4)c2ccc(OC)c(OC)c2)cc1OC | 73%

The compounds below were run on DU-145 (assay: Cell cycle arrest in human DU145 cells assessed as accumulation at S phase at 2 uM after 48 hrs by propidium iodide staining-based flow cytometric analysis (reference value: 5.88%)). Conditions: not given.
Assay type: functional

Row | Structure (SMILES) | Activity
22 | COc1ccc(/C=C(/C(=O)O[C@H]2c3cc4c(cc3[C@@H](c3cc(OC)c(OC)c(OC)c3)[C@H]3C(=O)OC[C@@H]32)OCO4)c2ccc(OC)c(OC)c2)cc1OC | 1.68%

These compounds were tested on HepG2 (assay: Cytotoxicity against human HepG2 cells after 48 hrs by MTT assay). Conditions: HepG2, 48 h.
Assay type: functional, cell-based

Row | Structure (SMILES) | pIC50
23 | COc1ccc(/C=C(/C(=O)O[C@H]2c3cc4c(cc3[C@@H](c3cc(OC)c(OC)c(OC)c3)[C@H]3C(=O)OC[C@@H]32)OCO4)c2ccc(OC)c(OC)c2)cc1OC | 5.29
24 | COc1ccc(/C(=C\c2cc(OC)c(OC)c(OC)c2)C(=O)O[C@H]2c3cc4c(cc3[C@@H](c3cc(OC)c(OC)c(OC)c3)[C@H]3C(=O)OC[C@@H]32)OCO4)cc1 | 4.63
25 | COc1cc([C@@H]2c3cc4c(cc3[C@H](OC(=O)c3cc([N+](=O)[O-])ccc3N)[C@H]3COC(=O)[C@H]23)OCO4)cc(OC)c1OC | 4.56
26 | COc1cc([C@@H]2c3cc4c(cc3[C@H](OC(=O)c3cccc(OC)c3OC)[C@H]3COC(=O)[C@H]23)OCO4)cc(OC)c1OC | 4.31

The compounds below were run on DU-145 (assay: Cytotoxicity against human DU145 cells assessed as inhibition of colony formation at 5 uM after 3 days by microscopy). Conditions: not given.
Assay type: functional, cell-based

Row | Structure (SMILES) | inhibition
27 | COc1ccc(/C=C(/C(=O)O[C@H]2c3cc4c(cc3[C@@H](c3cc(OC)c(OC)c(OC)c3)[C@H]3C(=O)OC[C@@H]32)OCO4)c2ccc(OC)c(OC)c2)cc1OC | Active
